PubChem BioAssay (NCI)
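Cultured in 96-well plates, cells were exposed to test compound for 48 hours across five concentrations. At the GI50, growth is halved. TGI: total growth inhibition.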

Tests used:
Assay in all cases: NCI anticancer screen, dose series, 48 h; in the data active = GI50 below about 0.43 µM; inactive = the rest
MDA-MB-231 breast = tested on: MDA-MB-231 breast
COLO 205 colon = tested on: COLO 205 colon
EKVX NSCLC = tested on: EKVX NSCLC
OVCAR-8 ovarian = tested on: OVCAR-8 ovarian
LOX IMVI melanoma = tested on: LOX IMVI melanoma
UO-31 renal = tested on: UO-31 renal
786-0 renal = tested on: 786-0 renal
HT29 colon = tested on: HT29 colon
OVCAR-3 ovarian = tested on: OVCAR-3 ovarian
SR leukemia = tested on: SR leukemia

CC/C=C\C/C=C\C[C@H]1C/C=C2/C(=O)C=C[C@H]2C/C=C\CCC(=O)O1
> 14.3 µM: TGI (MDA-MB-231 breast) | TGI (EKVX NSCLC) | TGI (OVCAR-8 ovarian)
7.45 µM: TGI (786-0 renal)
6.49 µM: TGI (HT29 colon)
4.78 µM: TGI (LOX IMVI melanoma)
4.96 µM: TGI (UO-31 renal)
6.71 µM: TGI (COLO 205 colon)
5.01 µM: TGI (OVCAR-3 ovarian)
inactive: GI50 (MDA-MB-231 breast) 4.65 µM | GI50 (COLO 205 colon) 3.11 µM | GI50 (EKVX NSCLC) 3.81 µM | GI50 (OVCAR-8 ovarian) 4.73 µM | GI50 (LOX IMVI melanoma) 2.34 µM | GI50 (UO-31 renal) 2.23 µM | GI50 (786-0 renal) 3.13 µM | GI50 (HT29 colon) 2.55 µM | GI50 (OVCAR-3 ovarian) 2.11 µM

O=C(CCl)Nc1ccc2c(c1)C(=O)c1ccc(NC(=O)CCl)cc1C2=O
2.36 µM: TGI (MDA-MB-231 breast)
0.885 µM: TGI (OVCAR-3 ovarian)
0.537 µM: TGI (786-0 renal)
1.88 µM: TGI (UO-31 renal)
0.229 µM: TGI (LOX IMVI melanoma)
1.98 µM: TGI (SR leukemia)
active: GI50 (LOX IMVI melanoma) 0.0935 µM | GI50 (786-0 renal) 0.193 µM | GI50 (HT29 colon) 0.314 µM | GI50 (SR leukemia) 0.0959 µM | GI50 (OVCAR-3 ovarian) 0.277 µM
4.21 µM: TGI (HT29 colon)
inactive: GI50 (MDA-MB-231 breast) 0.486 µM | GI50 (OVCAR-8 ovarian) 0.439 µM | GI50 (UO-31 renal) 0.449 µM
> 100 µM: TGI (OVCAR-8 ovarian)

Oc1cc2c(cc1O)-c1[nH]ncc1CC2
79.1 µM: TGI (UO-31 renal)
66.5 µM: TGI (COLO 205 colon)
> 100 µM: TGI (OVCAR-8 ovarian) | TGI (LOX IMVI melanoma) | TGI (786-0 renal) | TGI (HT29 colon) | TGI (SR leukemia)
61.1 µM: TGI (EKVX NSCLC)

CC(C)CC(=O)NS(=O)(=O)c1ccccc1
> 100 µM: TGI (COLO 205 colon) | TGI (EKVX NSCLC) | TGI (OVCAR-8 ovarian) | TGI (LOX IMVI melanoma) | TGI (UO-31 renal) | TGI (786-0 renal) | TGI (HT29 colon) | TGI (SR leukemia) | TGI (OVCAR-3 ovarian)

CC1=C(c2cc(C(=O)Nc3nccs3)nc(NC#N)n2)Sc2ccccc2N1
> 100 µM: TGI (COLO 205 colon) | TGI (EKVX NSCLC) | TGI (OVCAR-8 ovarian) | TGI (UO-31 renal) | TGI (786-0 renal) | TGI (HT29 colon) | TGI (SR leukemia) | TGI (OVCAR-3 ovarian)

CN(C)/C(N)=N/C(N)=S
> 100 µM: TGI (COLO 205 colon) | TGI (EKVX NSCLC) | TGI (OVCAR-8 ovarian) | TGI (LOX IMVI melanoma) | TGI (UO-31 renal) | TGI (786-0 renal) | TGI (HT29 colon) | TGI (SR leukemia) | TGI (OVCAR-3 ovarian)

C=C(CN1CCN(c2cccc(F)c2)CC1)c1ccc(C(=O)Nc2ccccc2N)cc1
10.2 µM: TGI (UO-31 renal)
4.06 µM: TGI (HT29 colon)
inactive: GI50 (MDA-MB-231 breast) 1.01 µM | GI50 (COLO 205 colon) 2.93 µM | GI50 (EKVX NSCLC) 6.68 µM | GI50 (OVCAR-8 ovarian) 1.99 µM | GI50 (LOX IMVI melanoma) 1.67 µM | GI50 (UO-31 renal) 1.31 µM | GI50 (786-0 renal) 1.84 µM | GI50 (HT29 colon) 1.09 µM | GI50 (OVCAR-3 ovarian) 1.94 µM
> 100 µM: TGI (EKVX NSCLC)
4.27 µM: TGI (MDA-MB-231 breast)
9.09 µM: TGI (COLO 205 colon)
13 µM: TGI (786-0 renal)
13.1 µM: TGI (LOX IMVI melanoma)
17.7 µM: TGI (OVCAR-3 ovarian)
47.9 µM: TGI (OVCAR-8 ovarian)

O=C(c1ccc2c3c(ccc(C(=O)C(F)(F)F)c13)CC2)C(F)(F)F
44.1 µM: TGI (COLO 205 colon)
> 100 µM: TGI (EKVX NSCLC) | TGI (OVCAR-8 ovarian) | TGI (LOX IMVI melanoma) | TGI (UO-31 renal) | TGI (786-0 renal) | TGI (HT29 colon) | TGI (SR leukemia) | TGI (OVCAR-3 ovarian)

CC(O[Si](C)(C)C)C1C=CC(C)n2c(=O)n(-c3ccccc3)c(=O)n21 (centres undefined)
> 100 µM: TGI (COLO 205 colon) | TGI (EKVX NSCLC) | TGI (OVCAR-8 ovarian) | TGI (UO-31 renal) | TGI (786-0 renal) | TGI (HT29 colon) | TGI (SR leukemia) | TGI (OVCAR-3 ovarian)

CCC(/C(=N\Nc1c(Cl)cc(Cl)cc1Cl)c1ccccc1)n1ccnc1C (centres undefined)
25.6 µM: TGI (786-0 renal)
21.4 µM: TGI (HT29 colon)
18.8 µM: TGI (OVCAR-3 ovarian)
20.1 µM: TGI (UO-31 renal)
26.8 µM: TGI (LOX IMVI melanoma)
37.2 µM: TGI (OVCAR-8 ovarian)
35.9 µM: TGI (EKVX NSCLC)
24.1 µM: TGI (COLO 205 colon)

COC(=O)c1ccc(C2SCC(=O)N2NC(=O)C(O)c2ccccc2)cc1 (centres undefined)
> 100 µM: TGI (MDA-MB-231 breast) | TGI (COLO 205 colon) | TGI (EKVX NSCLC) | TGI (OVCAR-8 ovarian) | TGI (LOX IMVI melanoma) | TGI (UO-31 renal) | TGI (786-0 renal) | TGI (HT29 colon) | TGI (OVCAR-3 ovarian)
inactive: GI50 (MDA-MB-231 breast) > 100 µM | GI50 (COLO 205 colon) > 100 µM | GI50 (EKVX NSCLC) > 100 µM | GI50 (OVCAR-8 ovarian) > 100 µM | GI50 (LOX IMVI melanoma) > 100 µM | GI50 (UO-31 renal) > 100 µM | GI50 (786-0 renal) > 100 µM | GI50 (HT29 colon) > 100 µM | GI50 (OVCAR-3 ovarian) > 100 µM

COc1ccc(Nc2ncccc2C(=O)NCc2cn(Cc3cccc(Oc4ccccc4)c3)nn2)cc1
7.93 µM: TGI (COLO 205 colon)
8.62 µM: TGI (MDA-MB-231 breast)
> 100 µM: TGI (EKVX NSCLC) | TGI (OVCAR-8 ovarian) | TGI (LOX IMVI melanoma) | TGI (UO-31 renal) | TGI (786-0 renal)
7.59 µM: TGI (OVCAR-3 ovarian)
15.4 µM: TGI (HT29 colon)
inactive: GI50 (MDA-MB-231 breast) 3.09 µM | GI50 (COLO 205 colon) 2.86 µM | GI50 (EKVX NSCLC) 4.16 µM | GI50 (OVCAR-8 ovarian) 3.72 µM | GI50 (LOX IMVI melanoma) 3.6 µM | GI50 (UO-31 renal) 3 µM | GI50 (786-0 renal) 5.59 µM | GI50 (HT29 colon) 3.66 µM | GI50 (OVCAR-3 ovarian) 2.98 µM

O=C(O)C1OC(Oc2cc(O)c3c(=O)cc(-c4ccc(O)cc4)oc3c2)C(O)C(O)C1O (centres undefined)
> 100 µM: TGI (COLO 205 colon) | TGI (EKVX NSCLC) | TGI (OVCAR-8 ovarian) | TGI (LOX IMVI melanoma) | TGI (UO-31 renal) | TGI (786-0 renal) | TGI (HT29 colon) | TGI (OVCAR-3 ovarian)

C[n+]1ccc(-c2c3nc(c(-c4ccc5c(ccc[n+]5C)c4)c4ccc([nH]4)c(-c4cc[n+](C)cc4)c4nc(c(-c5ccc6c(ccc[n+]6C)c5)c5ccc2[nH]5)C=C4)C=C3)cc1
> 50 µM: TGI (MDA-MB-231 breast) | TGI (COLO 205 colon) | TGI (EKVX NSCLC) | TGI (OVCAR-8 ovarian) | TGI (LOX IMVI melanoma) | TGI (UO-31 renal) | TGI (786-0 renal) | TGI (HT29 colon)
40.5 µM: TGI (OVCAR-3 ovarian)
inactive: GI50 (MDA-MB-231 breast) 16.3 µM | GI50 (COLO 205 colon) 23.1 µM | GI50 (EKVX NSCLC) > 50 µM | GI50 (OVCAR-8 ovarian) > 50 µM | GI50 (LOX IMVI melanoma) > 50 µM | GI50 (UO-31 renal) 19.9 µM | GI50 (786-0 renal) > 50 µM | GI50 (HT29 colon) > 50 µM | GI50 (OVCAR-3 ovarian) 7.91 µM

CCC/C(=N\NC(=O)c1cc2ccccc2cc1O)C(CC)C(=O)CCC(=O)N(Cc1ccccc1)Cc1ccccc1 (centres undefined)
> 100 µM: TGI (EKVX NSCLC) | TGI (OVCAR-8 ovarian) | TGI (LOX IMVI melanoma) | TGI (UO-31 renal) | TGI (786-0 renal) | TGI (HT29 colon) | TGI (SR leukemia) | TGI (OVCAR-3 ovarian)
69.5 µM: TGI (COLO 205 colon)

COc1cc2c3c(n(CCCCl)c(=O)c2cc1OC)-c1ccc(C#N)cc1C3=O
10.2 µM: TGI (MDA-MB-231 breast)
inactive: GI50 (MDA-MB-231 breast) 1.67 µM | GI50 (COLO 205 colon) 43.3 µM | GI50 (EKVX NSCLC) 7.99 µM | GI50 (OVCAR-8 ovarian) 6.3 µM | GI50 (LOX IMVI melanoma) 3.43 µM | GI50 (UO-31 renal) 30.2 µM | GI50 (786-0 renal) 14.4 µM | GI50 (HT29 colon) > 100 µM | GI50 (OVCAR-3 ovarian) 12.9 µM
30.1 µM: TGI (OVCAR-3 ovarian)
19.4 µM: TGI (LOX IMVI melanoma)
29.4 µM: TGI (786-0 renal)
34.4 µM: TGI (OVCAR-8 ovarian)
67.6 µM: TGI (EKVX NSCLC)
> 100 µM: TGI (COLO 205 colon) | TGI (UO-31 renal) | TGI (HT29 colon)

CC(=O)c1ccc(NCN2C(=O)c3ccccc3C2=O)cc1
> 100 µM: TGI (MDA-MB-231 breast) | TGI (COLO 205 colon) | TGI (EKVX NSCLC) | TGI (OVCAR-8 ovarian) | TGI (LOX IMVI melanoma) | TGI (UO-31 renal) | TGI (786-0 renal) | TGI (HT29 colon) | TGI (OVCAR-3 ovarian)
